# Experimental data: patent publication US11938129B2, “Methods and compositions for the treatment of vascular disease” (THE GENERAL HOSPITAL CORPORATION, priority 2018, dated 2024)
# Key:
# [1] = tested on: aortic wall of Fbn1C1039G/+ mice; experiment: histologic analysis of aortas of treated Fbn1C1039G/+ mice; format: in vivo, mouse; conditions: aortas of Fbn1C1039G/+ mice treated from two to six months
# Protocol: Latex was injected into the left ventricular apex under low pressure until it was visible in the femoral artery. Animals were then fixed in Formalin (10%) for 24 hours before transfer to 70% ethanol for dissection and storage. Aortas were then removed from the animals or dissected in situ for photography prior to paraffinization and sectioning (10 pM). Slides were produced for tissue staining or stained with standard stains including H&E staining, collagen deposition (Trichrome Stain (Masson) Kit, Sigma, USA), elastin (Verhoeff-Van Gieson, Thermo Scientific, MI, USA) or F-actin (ActinGreen™ 488 ReadyProbes, ThermoFisher Scientific, USA) for quantitative analysis. Elastin integrity score was rated by blinded observers and graded on an arbitrary scale of 5 (indicating high quality elastic fiber) to 1 (indicating severe elastin fragmentation). For nuclear staining aortas from human and mice were cryosectioned using OCT standard protocol as described previously (Fischer et al., 2008). Cohorts of 8-week-old wild-type or Fbn1cw3gGi+ mice were treated with oral administration in drinking water of either Losartan or GSK343 for 20 weeks (FIG. 5). […] Then 200 mL of drinking water was supplemented with 250 pL of GSK343 stock solution. Control group for either drug treatment was given with equal volumes of sterile water. Bottles containing either losartan or GSKS343 were replaced with fresh water supplied with drugs every 3 days. For experiments described in FIG. 5A-5C, 16-week-old wild-type or Fbnicw3gGi+ mice were treated for 8 weeks and as described above. Additionally, a group of mice were given a combination of both losartan and GSK343 at the same concentrations as of other single drug treatments. Aortic dimensions were monitored monthly by echocardiograms as mentioned above.
# [2] = tested on: aortic aneurysm in Fbn1C1039G/+ mice; experiment: experimental aortic aneurysm in Fbn1C1039G/+ mice: echocardiographic aortic dimensions; format: in vivo, mouse; conditions: Fbn1C1039G/+ mice treated from two to six months of life, drinking water
# Source text: Dimensions from each animal represent averages of measurements made on still frames in systole of the maximal internal diameter of the aortic valve annulus, aortic sinuses, sinotubular junction, or ascending aorta by a cardiologist blinded to genotype. The aorta was imaged using a standard parasternal long axis view. Based on historic controls, the mean diameter of the wild type aortic root at 4 months of life is 1.73+/-0.2 mm while in our disease model (Fbn1ci°[…]/+) the mean diameter is 2.15+/-0.3 mm. […] Nair hair removal cream was used on all mice the day prior to echocardiograms. All echocardiograms were performed on awake, unsedated mice using the Visualsonics Vevo imaging system and a 30 MHz transducer. All CT images were acquired using an Inveon small animal micro CT (Siemens Medical Solutions Inc., Malven, Pa.). All mice received intravenous iodinated contrast (Isovue-370, Bracco Diagnostic Inc.) at 20 pL/min during the scan. […] Images were visualized and analyzed in OsiriX software. Cohorts of 8-week-old wild-type or Fbn1cw3gGi+ mice were treated with oral administration in drinking water of either Losartan or GSK343 for 20 weeks (FIG. 5). […] Then 200 mL of drinking water was supplemented with 250 pL of GSK343 stock solution. […] Aortic dimensions were monitored monthly by echocardiograms as mentioned above.
# [3] = tested on: SM22a expression in TAA VSMCs; experiment: in vitro GSK343 treatment of isolated TAA VSMCs, SM22a immunoblotting after TGF-β1; format: cell-based, human; conditions: GSK343, TGF-β1 10 ng/mL
# Protocol: Primary human aortic smooth muscle cells (HAoSMC) from healthy donors were purchased from Cell Applications Inc., California, USA (Cat. #354K-05a). Primary aneurysm aortic SMCs were isolated from fresh TAA tissue at the moment of surgery by standard explant of the aortic media. Mouse aortic SMCs were isolated by standard explant of the ascending section of the aortas from wild-type or Fbn1ci°39G1+ mice. Smooth muscle cell identity was assessed by immunofluorescence staining of contractile markers including SM22a, Calponin, Smoothelin and Vinculin. In order to preserve cell identity all experiments were carried out at passages 1-5 (Timraz et al., 2016). Human and murine SMCs were grown with smooth muscle cell growth medium from Cell Applications Inc. (Cat. #311-500). VSMCs at 60-70% confluence were supplemented with opti-MEM 24 hrs before treatment with complete growing media containing GSK343 at a concentration of […] for 4 days. Fresh media containing GSK343 was supplied daily. For GSK343/TGF81 (10 ng/mL) combo treatment, cells were first treated with complete media containing GSK343 at concentration of 10 nM during the 2 first days followed by GSK343/TGFβ combination treatment the next 2 days. Prior to cellular collection cells were washed with sterile PBS and RNA or protein extraction were performed as described above.
# VSMC phenotypic markers = experiment: expression of VSMC phenotypic markers in aortas of treated Fbn1C1039G/+ mice; format: in vivo, mouse; conditions: aortas of Fbn1C1039G/+ mice treated from two to six months
# Protocol: Total RNA was prepared from tissue or primary cells using RNeasy kit (Qiagen) following the manufacturer's protocol. The cDNA was prepared by reverse transcription, and expression of SMC contractile genes were analyzed by qRT-PCR on SYBR green system (Applied Biosystem, Foster city, CA). 50 pL of plasma from wild-type or Fbn1cl° 39G1+ mice were used to prepare total RNA as mentioned above. Expression results were analyzed by the ddCT method and GAPDH (encoding glyceraldehyde-3-phosphate dehydrogenase) was used as a housekeeping gene. Fold change were calculated by taking the average over all the control samples as the baseline. […] The supernatant was removed and the vesicular fraction was resuspended with 750 pL of TRizol reagent followed by RNA extraction using the RNeasy kit (Qiagen) according to the manufacturer's protocol. Cohorts of 8-week-old wild-type or Fbn1cw3gGi+ mice were treated with oral administration in drinking water of either Losartan or GSK343 for 20 weeks (FIG. 5). […] Then 200 mL of drinking water was supplemented with 250 pL of GSK343 stock solution. Control group for either drug treatment was given with equal volumes of sterile water. Bottles containing either losartan or GSKS343 were replaced with fresh water supplied with drugs every 3 days. For experiments described in FIG. 5A-5C, 16-week-old wild-type or Fbnicw3gGi+ mice were treated for 8 weeks and as described above. Additionally, a group of mice were given a combination of both losartan and GSK343 at the same concentrations as of other single drug treatments. Aortic dimensions were monitored monthly by echocardiograms as mentioned above.
# EZH1 = EZH1 (Homo sapiens, UniProt Q92800); conditions: cited from earlier work
# EZH1, sequence (Q92800 whole entry, species assumed): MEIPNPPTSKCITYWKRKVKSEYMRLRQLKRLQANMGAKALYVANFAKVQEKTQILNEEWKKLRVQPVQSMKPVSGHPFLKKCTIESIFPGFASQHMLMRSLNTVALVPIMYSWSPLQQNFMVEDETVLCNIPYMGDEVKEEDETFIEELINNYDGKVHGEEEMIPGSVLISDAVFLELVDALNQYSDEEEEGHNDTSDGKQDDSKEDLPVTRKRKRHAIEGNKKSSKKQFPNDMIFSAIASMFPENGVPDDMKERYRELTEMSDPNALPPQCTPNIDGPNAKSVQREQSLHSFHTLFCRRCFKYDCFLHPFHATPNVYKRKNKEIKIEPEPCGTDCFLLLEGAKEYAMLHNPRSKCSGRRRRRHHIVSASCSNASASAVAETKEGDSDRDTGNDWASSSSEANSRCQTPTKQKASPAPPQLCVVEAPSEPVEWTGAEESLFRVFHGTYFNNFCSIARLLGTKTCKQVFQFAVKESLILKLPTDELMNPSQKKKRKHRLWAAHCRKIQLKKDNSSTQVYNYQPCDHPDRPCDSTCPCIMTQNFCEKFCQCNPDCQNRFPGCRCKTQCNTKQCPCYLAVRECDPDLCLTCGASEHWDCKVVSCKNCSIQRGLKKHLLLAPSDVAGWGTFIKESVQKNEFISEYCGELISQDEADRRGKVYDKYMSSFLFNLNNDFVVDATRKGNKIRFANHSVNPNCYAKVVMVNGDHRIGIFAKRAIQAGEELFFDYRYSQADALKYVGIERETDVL
# EZH1, sequence (O75530 whole entry partner, species assumed): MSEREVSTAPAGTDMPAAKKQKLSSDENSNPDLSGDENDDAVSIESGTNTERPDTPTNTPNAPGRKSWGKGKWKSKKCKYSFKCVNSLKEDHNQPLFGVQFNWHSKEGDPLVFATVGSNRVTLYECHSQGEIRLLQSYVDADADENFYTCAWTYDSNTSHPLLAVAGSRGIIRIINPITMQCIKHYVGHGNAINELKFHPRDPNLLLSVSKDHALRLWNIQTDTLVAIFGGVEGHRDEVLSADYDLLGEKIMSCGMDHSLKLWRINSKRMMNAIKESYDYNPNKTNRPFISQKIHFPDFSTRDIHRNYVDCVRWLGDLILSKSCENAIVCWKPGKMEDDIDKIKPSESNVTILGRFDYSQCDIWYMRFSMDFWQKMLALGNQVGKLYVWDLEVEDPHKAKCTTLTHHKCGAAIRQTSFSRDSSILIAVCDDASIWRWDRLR
# EZH1, sequence (Q15022 whole entry partner, species assumed): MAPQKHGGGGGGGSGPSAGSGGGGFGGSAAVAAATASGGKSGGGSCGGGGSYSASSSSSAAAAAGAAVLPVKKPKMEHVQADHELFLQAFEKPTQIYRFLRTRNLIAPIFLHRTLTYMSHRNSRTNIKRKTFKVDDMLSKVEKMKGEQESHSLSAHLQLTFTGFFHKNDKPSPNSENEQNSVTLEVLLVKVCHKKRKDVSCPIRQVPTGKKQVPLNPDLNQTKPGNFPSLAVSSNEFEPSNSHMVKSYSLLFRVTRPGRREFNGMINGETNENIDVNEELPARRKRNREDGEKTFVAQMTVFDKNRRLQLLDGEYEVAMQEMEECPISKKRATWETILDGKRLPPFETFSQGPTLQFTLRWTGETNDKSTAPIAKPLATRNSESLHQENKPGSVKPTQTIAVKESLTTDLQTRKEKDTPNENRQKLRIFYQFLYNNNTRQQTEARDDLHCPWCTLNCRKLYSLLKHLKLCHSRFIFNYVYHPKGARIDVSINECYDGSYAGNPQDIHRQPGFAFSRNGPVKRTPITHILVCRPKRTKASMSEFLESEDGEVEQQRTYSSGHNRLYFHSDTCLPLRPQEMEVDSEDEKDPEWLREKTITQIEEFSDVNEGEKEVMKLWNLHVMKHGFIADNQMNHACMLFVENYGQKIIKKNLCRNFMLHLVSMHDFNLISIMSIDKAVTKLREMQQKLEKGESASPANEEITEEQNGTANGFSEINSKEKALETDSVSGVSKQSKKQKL
# EZH1, sequence (Q09028 whole entry partner, species assumed): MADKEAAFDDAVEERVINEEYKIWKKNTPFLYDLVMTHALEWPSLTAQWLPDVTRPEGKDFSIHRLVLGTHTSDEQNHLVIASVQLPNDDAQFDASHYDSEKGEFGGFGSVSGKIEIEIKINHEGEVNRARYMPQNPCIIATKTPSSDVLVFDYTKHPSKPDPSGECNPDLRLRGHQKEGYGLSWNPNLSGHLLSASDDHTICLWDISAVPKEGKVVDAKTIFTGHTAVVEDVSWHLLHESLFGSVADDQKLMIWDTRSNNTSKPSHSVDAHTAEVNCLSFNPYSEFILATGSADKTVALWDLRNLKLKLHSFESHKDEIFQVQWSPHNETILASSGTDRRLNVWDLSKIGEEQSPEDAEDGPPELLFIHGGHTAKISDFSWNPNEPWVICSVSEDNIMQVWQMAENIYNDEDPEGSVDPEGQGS
# EZH1, sequence (Q6ZN18 whole entry partner, species assumed): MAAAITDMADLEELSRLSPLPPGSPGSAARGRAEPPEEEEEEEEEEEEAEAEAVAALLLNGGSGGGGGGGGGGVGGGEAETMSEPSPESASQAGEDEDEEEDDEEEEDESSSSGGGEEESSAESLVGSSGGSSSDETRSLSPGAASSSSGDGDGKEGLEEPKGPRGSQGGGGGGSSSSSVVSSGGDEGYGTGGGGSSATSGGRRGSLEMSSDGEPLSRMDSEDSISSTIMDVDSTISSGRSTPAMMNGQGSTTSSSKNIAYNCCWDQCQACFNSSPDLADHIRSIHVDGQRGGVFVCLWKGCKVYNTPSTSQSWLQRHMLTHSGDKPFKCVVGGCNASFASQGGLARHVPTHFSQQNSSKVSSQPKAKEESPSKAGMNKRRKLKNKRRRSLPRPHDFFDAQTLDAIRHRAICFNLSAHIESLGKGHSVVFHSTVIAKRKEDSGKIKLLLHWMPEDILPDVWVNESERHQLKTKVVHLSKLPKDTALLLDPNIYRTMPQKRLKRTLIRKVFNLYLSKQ
compound,measurement,setting,value
CCCc1cc(C)[nH]c(=O)c1CNC(=O)c1cc(-c2ccnc(N3CCN(C)CC3)c2)cc2c1cnn2C(C)C [GSK343],aortic architecture and filamentous actin content,[1],improvement
same,elastin integrity,[1],not a significant improvement in elastin fiber integrity
same,aortic dimensions,[2],ability to improve aortic dimensions
same,SM22a expression after stimulation with recombinant TGF-β1,[3],recovered the ability to induce SM22a expression
same,contractile elements,VSMC phenotypic markers,better recovery of contractile elements
same,"synthetic markers (Col1a1, Col3a1, Gja1, Mmp2)",VSMC phenotypic markers,inability to repress synthetic markers
same,selectivity for EZH2 vs. EZH1,EZH1,60 fold
